In publication PMC6359543, “Efficacy of Azatyrosine-Phenylbutyric Hydroxamides, a Histone Deacetylase Inhibitor, on Chemotherapy-Induced Gastrointestinal Mucositis” (International Journal of Molecular Sciences, 2019):
Like-named read-outs stand apart in the source and are kept apart here.

What was measured:
[1] = system: Salmonella typhimurium TA102
Protocol: Five strains of Salmonella typhimurium, TA98, TA102, TA100, TA1537, and TA1535, were obtained from Moltox (Boone, NC, USA). Mutagenicity was evaluated by the incorporation method in the presence or absence of S9 metabolic activation. A volume of 100 µL of each test bacterial culture (10^9 cells/mL), 2 mL soft agar (0.6% agar, 0.5% NaCl, 5 mM histidine, and […], pH 7.4, 40–50 °C), 0.5 mL S9 mixture (if necessary), and AzP were mixed well in a test tube. […] The revertant colonies were counted, and a positive mutagenic response was identified when (i) the number of revertants was at least double the spontaneous yield; (ii) a statistical significance (p ≤ 0.05) was found; and (iii) a reproducible positive dose response was present.

Pan HDAC enzyme = assay: HDAC fluorometric activity assay, pan HDAC; assay type: biochemical
Protocol: Pan HDAC enzyme (all the known class I HDACs-HDAC1, HDAC2, HDAC3, HDAC8 and class II HDACs 4-7, 9 and 10), HDAC subtype 1, 3 and 4 activity were determined by using the HDAC fluorometric cellular activity assay (Enzo Life Sciences, Farmingdale, NY, USA) according to the manufacturer’s protocol. […] Percent activity for each of the test compounds is calculated as follows:
Activity = {(Sc − B)/(S° − B)} × 100. […] IC50 was then calculated and represented as mean ± SD.

[2] = system: Chinese Hamster Ovary cells (CHO-K1); assay: Chromosome aberration assay; assay type: cell-based; settings: for Number of cells with structural aberrations (%) B: chromosome break / Number of cells with structural aberrations (%) e: exchange / Number of cells with structural aberrations (%) G: chromosome gap / Number of cells with structural aberrations (%) b: chromatid break / Aberrant cell (%) With gap / Aberrant cell (%) Without gap / Number of cells with structural aberrations (%) D: dicentric / Number of cells with structural aberrations (%) g: chromatid gap: Chinese hamster
Protocol: Chinese hamster ovary epithelial cells (CHO-K1, American Type Culture Collection, Manassas, VA, USA) were cultured in 6-cm dishes at a density of 2 × 10^5 cells/mL for chromosomal abnormality analysis. […] Colemid (0.1 μg/mL) was administered 3 h before trypsinization, followed by treatment with 0.9% sodium citrate at 37 °C and Carnoy’s solution (methanol:acetic acid, 3:1). The cells were stained with 3% Giemsa solution in 0.07 M phosphate buffer (pH 6.8) on glass slides. […] The data were expressed as the total mean number of chromosomal aberrations per treatment ± standard deviation (SD) from three independent experiments.

[3] = system: Salmonella typhimurium TA100; assay type: cell-based
Protocol: Five strains of Salmonella typhimurium, TA98, TA102, TA100, TA1537, and TA1535, were obtained from Moltox (Boone, NC, USA). Mutagenicity was evaluated by the incorporation method in the presence or absence of S9 metabolic activation [29]. A volume of 100 µL of each test bacterial culture (10^9 cells/mL), 2 mL soft agar (0.6% agar, 0.5% NaCl, 5 mM histidine, and 50 mM biotin, pH 7.4, 40–50 °C), 0.5 mL S9 mixture (if necessary), and AzP were mixed well in a test tube. […] The revertant colonies were counted, and a positive mutagenic response was identified when (i) the number of revertants was at least double the spontaneous yield; (ii) a statistical significance (p ≤ 0.05) was found; and (iii) a reproducible positive dose response was present.

acetyl-histone H3 = assay: Western blot of acetyl-histone H3 in IEC-6 cells; assay type: cell-based, Rat; settings: AzP 5, 10 and 20 μM, 24 h
Protocol: Figure 3 In vitro histone deacetylase (HDAC) activity. […] Cell lysates were used for acetyl-histone H3 protein expression by Western blot. Data are expressed as means ± SD from 3 independent experiments. *** p < 0.001 as compared with the resting and ** p < 0.01 as compared with the resting (B).
IEC-6 cells were incubated in different AzP concentrations with/without LPS stimulation for 24 h. The homogenate from cells or tissues was then centrifuged at 14,000× g for 10 min at 4 °C and the supernatant was collected. Protein separation was performed using 10% reducing SDS-PAGE, electrotransferred onto polyvinylidene difluoride (PVDF), and immunoblotted with antibodies against inflammatory proteins as well as β-actin as control. Densitometry was performed using BioLight software V2000.01 (Uhldingen-Mühlhofen, Germany). The optical density of specific protein was normalized to an internal control and expressed as a ratio to control.

Protocol for C57BL/6 mice: C57BL/6 mice were treated with 11 mg/kg/day cisplatin on day 0. Gavages of 50, 100, and 250 mg/kg AzP were given on days −1, 0, and 1. From a total of 9 mice, 3 were sacrificed on days 3 and 5, and their intestine collected for further immunohistological observations. Weights were recorded daily until day 9.
For the mucositis model experiments using chemotherapy, 45 female C57BL/6 mice were randomly placed in 5 groups for 3 days of treatment with AzP (50–250 mg/kg) P.O. on days −1, 0 and 1. Cisplatin (11 mg/kg) was intraperitoneally injected on day 0 as the chemotherapy. Control mice were injected with an appropriate vehicle. Mice were weighed daily and expressed as relative mean body weight change (%) from baseline (day 0 = 100%) and monitored closely for signs of morbidity over the course of the weeks to follow. On days 3 and 5, 3 of 9 mice were randomly chosen from each group and sacrificed for further intestinal analysis (Figure 1B). Control mice were injected with HPβCD as vehicle.
Histological and immunohistological observations of the intestine were performed on mice pretreated with AzP or HPβCD, followed by a course of cisplatin chemotherapy as described above. The mice were euthanized, intestines were removed, and a segment of the swiss-rolled trimming jejunum underwent formalin fixation and paraffin embedding. Hematoxylin and eosin stain were performed to observe the morphometry of villus length and crypt depth [28]. Also, tissue sections were deparaffinized and rehydrated through a series of alcohols followed by antigen retrieval with Tris-EDTA buffer (10 mM TrisBase, 1 mM EDTA, 0.05% Tween 20, pH 9.0). Then, the HRP/DAB (ABC) Detection immunohistochemistry (IHC) Kit (Abcam, Cambridge, UK) was used. Tissue sections were quenched with endogenous peroxidase (3% hydrogen peroxide) for 10 min, followed by 5% Bovine serum albumin (BSA) blocking for 5 min and subsequent incubation with primary antibodies overnight at 4 °C. Following washing, the tissue sections were incubated with biotinylated secondary antibody for 10 min, followed by streptavidin peroxidase for another 10 min. After washing, the colorimetric reaction was developed by incubation with DAB substrate for 5 min and underwent microscopy observation.

With `CC(C)(C)OC(=O)NC(Cc1ccc(OCc2ccccc2)cn1)C(=O)Nc1ccc(CCCC(=O)NO)cc1` (stereo not drawn) [AzP, Azatyrosine-phenylbutyric hydroxamides] the “structure of intestinal mucosa, villus length and crypt depth (H&E)” value (C57BL/6 mice; 250 mg/kg/day group, days 3 and 5) was “restored”, the “Relative mean body weight (day 0 = 100%)” value (C57BL/6 mice; day 5, AzP 50 mg/kg gavage days −1, 0, 1 + cisplatin 11 mg/kg) was 78.7 ± 4.7% and the “Relative mean body weight (day 0 = 100%)” value (C57BL/6 mice; day 5, AzP 100 mg/kg gavage days −1, 0, 1 + cisplatin 11 mg/kg) was 80.5 ± 3.4%. The “Relative mean body weight (day 0 = 100%)” value (C57BL/6 mice; day 5, AzP 250 mg/kg gavage days −1, 0, 1 + cisplatin 11 mg/kg) was 89.1 ± 8.1%, the “MCP-1 expression in intestine (IHC)” value (C57BL/6 mice; day 5, cisplatin 11 mg/kg) was “dose-dependently reduced” and the “Serum IL-6 level (ELISA)” value (C57BL/6 mice; day 5, cisplatin 11 mg/kg) was “inhibit cisplatin-induced IL-6 production in a dose-dependent manner”. For the same compound, the “TNF-α expression in intestine (IHC)” value (C57BL/6 mice; day 5, cisplatin 11 mg/kg) was “dose-dependently reduced”, the “Ames test result, TA102 (-S9)” value ([1]; -S9) was “Negative” and the “Revertant colonies per plate (+S9) TA102” value ([1]; AzP 0.00245 mg/plate) was 219.7±6.9. The “Revertant colonies per plate (-S9) TA102” value ([1]; AzP 0.00245 mg/plate) was 141±4.4, the “Revertant colonies per plate (+S9) TA102” value ([1]; AzP 0.0049 mg/plate) was 225.7±4.5 and the “Revertant colonies per plate (-S9) TA102” value ([1]; AzP 0.0049 mg/plate) was 142.3±4.7. The “Revertant colonies per plate (+S9) TA102” value ([1]; AzP 0.0098 mg/plate) was 215±4, the “Revertant colonies per plate (-S9) TA102” value ([1]; AzP 0.0098 mg/plate) was 140.3±7.9 and the “Revertant colonies per plate (+S9) TA102” value ([1]; AzP 0.0195 mg/plate) was 230.7±2. The “Revertant colonies per plate (-S9) TA102” value ([1]; AzP 0.0195 mg/plate) was 139.5±5.6, the “Revertant colonies per plate (+S9) TA102” value ([1]; AzP 0.0391 mg/plate) was 212.2±9.2 and the “Revertant colonies per plate (-S9) TA102” value ([1]; AzP 0.0391 mg/plate) was 138.3±8.5. For the same compound, the “Revertant colonies per plate (+S9) TA102” value ([1]; AzP 0.0781 mg/plate) was 233.3±9.8, the “Revertant colonies per plate (-S9) TA102” value ([1]; AzP 0.0781 mg/plate) was 152.7±11.3 and the “Revertant colonies per plate (+S9) TA102” value ([1]; AzP 0.156 mg/plate) was 217.3±4.8. For the same compound, the “Revertant colonies per plate (+S9) TA102” value ([1]; AzP 0.3125 mg/plate) was 230.1±8.4, the “Revertant colonies per plate (+S9) TA102” value ([1]; AzP 0.625 mg/plate) was 217.4±7.3 and the “Ames test result, TA102 (|S9)” value ([1]; second S9 group) was “Negative”. For the same compound, the IC50 (Pan HDAC enzyme) was 1.65 ± 0.103 µM, the “Chromosome aberration assay result” value [2] was “Negative” and the “Number of cells with structural aberrations (%) B: chromosome break” value (“Number of cells … (%) B: chromosome break” for short) ([2]; 3 h, 5 µg/mL) was 0.00±0.00%. The “Number of cells with structural aberrations (%) e: exchange” value (“Number of cells … (%) e: exchange” for short) ([2]; 3 h, 5 µg/mL) was 0.00±0.00%, the “Number of cells … (%) B: chromosome break” value ([2]; 3 h, 10 µg/mL) was 0.00±0.00% and the “Number of cells with structural aberrations (%) G: chromosome gap” value (“Number of cells … (%) G: chromosome gap” below) ([2]; 3 h, 10 µg/mL) was 0.00±0.00%. The “Number of cells with structural aberrations (%) b: chromatid break” value (“Number of cells … (%) b: chromatid break” for short) ([2]; 3 h, 10 µg/mL) was 0.00±0.00%, the “Number of cells … (%) e: exchange” value ([2]; 3 h, 10 µg/mL) was 0.00±0.00% and the “Number of cells … (%) B: chromosome break” value ([2]; 3 h, 20 µg/mL) was 0.00±0.00%. For the same compound, the “Number of cells … (%) G: chromosome gap” value ([2]; 3 h, 20 µg/mL) was 0.00±0.00%, the “Aberrant cell (%) With gap” value ([2]; 24 h, 5 µg/mL) was 4.33±0.58% and the “Aberrant cell (%) Without gap” value ([2]; 24 h, 5 µg/mL) was 1.67±1.53%. For the same compound, the “Number of cells … (%) B: chromosome break” value ([2]; 24 h, 5 µg/mL) was 0.00±0.00%, the “Number of cells with structural aberrations (%) D: dicentric” value (from here on “Number of cells … (%) D: dicentric”) ([2]; 24 h, 5 µg/mL) was 0.33±0.58% and the “Number of cells … (%) G: chromosome gap” value ([2]; 24 h, 5 µg/mL) was 0.33±0.58%. For the same compound, the “Number of cells … (%) b: chromatid break” value ([2]; 24 h, 5 µg/mL) was 1.00±1.00%, the “Number of cells … (%) e: exchange” value ([2]; 24 h, 5 µg/mL) was 0.33±0.58% and the “Number of cells with structural aberrations (%) g: chromatid gap” value (shortened to “Number of cells … (%) g: chromatid gap”) ([2]; 24 h, 5 µg/mL) was 2.33±1.53%. For the same compound, the “Aberrant cell (%) With gap” value ([2]; 24 h, 10 µg/mL) was 4.00±1.00%, the “Aberrant cell (%) Without gap” value ([2]; 24 h, 10 µg/mL) was 2.67±1.53% and the “Number of cells … (%) B: chromosome break” value ([2]; 24 h, 10 µg/mL) was 0.00±0.00%. For the same compound, the “Number of cells … (%) D: dicentric” value ([2]; 24 h, 10 µg/mL) was 0.67±0.58%, the “Number of cells … (%) G: chromosome gap” value ([2]; 24 h, 10 µg/mL) was 0.67±0.58% and the “Number of cells … (%) b: chromatid break” value ([2]; 24 h, 10 µg/mL) was 1.33±0.58%. The “Number of cells … (%) e: exchange” value ([2]; 24 h, 10 µg/mL) was 0.67±0.58%, the “Number of cells … (%) g: chromatid gap” value ([2]; 24 h, 10 µg/mL) was 1.33±0.58% and the “Aberrant cell (%) With gap” value ([2]; 24 h, 20 µg/mL) was 4.33±0.58%. The “Aberrant cell (%) Without gap” value ([2]; 24 h, 20 µg/mL) was 0.67±0.58%, the “Number of cells … (%) B: chromosome break” value ([2]; 24 h, 20 µg/mL) was 0.33±0.58% and the “Number of cells … (%) D: dicentric” value ([2]; 24 h, 20 µg/mL) was 0.00±0.00%. For the same compound, the “Number of cells … (%) G: chromosome gap” value ([2]; 24 h, 20 µg/mL) was 0.33±0.58%, the “Number of cells … (%) b: chromatid break” value ([2]; 24 h, 20 µg/mL) was 0.00±0.00% and the “Number of cells … (%) e: exchange” value ([2]; 24 h, 20 µg/mL) was 0.00±0.00%. For the same compound, the “Number of cells … (%) g: chromatid gap” value ([2]; 24 h, 20 µg/mL) was 3.33±0.58%, the “Ames test result, TA100 (-S9)” value ([3]; -S9) was “Negative” and the “Revertant colonies per plate (+S9) TA100” value ([3]; AzP 0.00245 mg/plate) was 106.7±2.2. The “Revertant colonies per plate (-S9) TA100” value ([3]; AzP 0.00245 mg/plate) was 81±5, the “Revertant colonies per plate (+S9) TA100” value ([3]; AzP 0.0049 mg/plate) was 106±4.4 and the “Revertant colonies per plate (-S9) TA100” value ([3]; AzP 0.0049 mg/plate) was 78.7±2.7. The “Revertant colonies per plate (+S9) TA100” value ([3]; AzP 0.0098 mg/plate) was 107.3±1.3, the “Revertant colonies per plate (-S9) TA100” value ([3]; AzP 0.0098 mg/plate) was 81.7±2.7 and the “Revertant colonies per plate (+S9) TA100” value ([3]; AzP 0.0195 mg/plate) was 110.3±3.8. For the same compound, the “Revertant colonies per plate (-S9) TA100” value ([3]; AzP 0.0195 mg/plate) was 89.7±9, the “Revertant colonies per plate (+S9) TA100” value ([3]; AzP 0.0391 mg/plate) was 150.3±19.7 and the “Revertant colonies per plate (-S9) TA100” value ([3]; AzP 0.0391 mg/plate) was 90.8±9.6. For the same compound, the “Revertant colonies per plate (+S9) TA100” value ([3]; AzP 0.0781 mg/plate) was 153±3.1, the “Revertant colonies per plate (-S9) TA100” value ([3]; AzP 0.0781 mg/plate) was 88.7±1.2 and the “Revertant colonies per plate (+S9) TA100” value ([3]; AzP 0.156 mg/plate) was 104±8. The “Revertant colonies per plate (+S9) TA100” value ([3]; AzP 0.3125 mg/plate) was 92.2±5.2, the “Ames test result, TA100 (|S9)” value ([3]; second S9 group) was “Negative” and the “histone acetylation (acetyl-histone H3, Western blot)” value (acetyl-histone H3) was “elevated histone acetylation”.
